Experimental findings from patent US9926299B2, “Inhibitors of bruton's tyrosine kinase” (Centaurus BioPharma Co., Ltd., priority 2012, dated 2018) are described below.

Assay [1] addresses BTK kinase (Homo sapiens (Human), UniProt Q06187). Description: Btk kinase enzymatic assay (HTRF). The settings on record: ATP at Km. In kind it is biochemical. On the procedure: Btk kinase activity was determined using a Homogeneous Time-Resolved Fluorescence (HTRF) methodology (Cisbio). […] The mixture was centrifuged and incubated for 5 min. […] For each compound, enzyme activity was measured at various concentrations of compound, and IC50s were obtained by GraFit Software 6.0 (Erithacus Software).
(In general: TR-FRET usually uses a lanthanide donor and a delayed reading to cut background.)

Assay [2] has as its system Ramos cells. Description: BCR-induced calcium flux fluorescence-based assay in Ramos cells. The following applies: Ramos cells stimulated with goat anti-human IgM antibody; read-out: Ramos Cell Ca Flux IC50. As for the experimental part: Calcium flux fluorescence-based assays were performed using Fluo-4 Direct™ Calcium Assay Kits (purchased from Invitrogen) in a FlexStation III (purchased from Molecular Devices) according to manufacturer instructions. In brief, actively growing Romas cells in RPM1-1640 medium (purchased from Invitrogen) supplemented with 10% FBS (purchased from Hyclone) were washed and re-plated in low serum medium at approximately 1×10^5 cells per 45 μL per well in a 96-well plate (purchased from Corning), then added 45 μL of dye (purchased from Invitrogen) and incubated at 37 degree for 1 hour. Compounds to be assayed were dissolved and 3-fold serially diluted in DMSO and then diluted by 100 times in low serum medium. Then 10 μL of the diluted mixture were added to the above 96-well plate (final DMSO concentration was 0.1%) and incubated at 37 degree in 5% CO2 incubator for 0.5 hour. The compound-treated cells were stimulated with a goat anti-human IgM antibody (10 μg/ml; purchased from SouthernBiotech) and read in the FlexStation III using a λEx=494 nM and […] for 90 seconds. The relative fluorescence unit (RFU) and the IC50 were recorded and analyzed using a GraphPad Prism 5 (GraphPad Software).
(In general: A change in cytosolic calcium serves as a functional read-out for many receptors and channels.)

As usually defined, the IC50 is the concentration at which inhibition is half-maximal.

Some results are limits rather than exact numbers.

Chain of BTK kinase (Q06187 whole entry): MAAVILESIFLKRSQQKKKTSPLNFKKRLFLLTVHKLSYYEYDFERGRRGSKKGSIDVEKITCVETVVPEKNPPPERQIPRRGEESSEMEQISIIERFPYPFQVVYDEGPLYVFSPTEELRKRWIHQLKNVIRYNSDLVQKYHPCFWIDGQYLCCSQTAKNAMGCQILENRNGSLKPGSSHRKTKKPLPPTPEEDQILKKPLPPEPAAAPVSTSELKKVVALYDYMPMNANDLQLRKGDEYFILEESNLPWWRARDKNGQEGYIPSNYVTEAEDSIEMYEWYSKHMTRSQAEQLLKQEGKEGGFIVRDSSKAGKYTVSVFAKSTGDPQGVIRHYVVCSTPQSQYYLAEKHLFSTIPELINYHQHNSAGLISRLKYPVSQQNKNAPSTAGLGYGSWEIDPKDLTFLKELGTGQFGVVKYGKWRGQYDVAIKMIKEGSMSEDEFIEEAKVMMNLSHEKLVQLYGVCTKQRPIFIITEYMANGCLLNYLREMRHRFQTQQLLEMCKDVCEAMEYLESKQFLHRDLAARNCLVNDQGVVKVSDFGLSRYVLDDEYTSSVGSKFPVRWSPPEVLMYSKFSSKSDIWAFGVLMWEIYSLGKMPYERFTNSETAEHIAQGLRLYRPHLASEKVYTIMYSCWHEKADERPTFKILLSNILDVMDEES

Take `C=CC(=O)N1CCCC(n2nc(-c3ccc(Oc4ccccc4)cc3)c(C(N)=O)c2NC)C1` (centres unmarked) [Example 1, 1-(1-acryloylpiperidin-3-yl)-5-(methylamino)-3-(4-phenoxyphenyl)-1H-pyrazole-4-carboxamide]: the IC50 in assay [1] and in assay [2] was below 100 nM in each case.

As for `CN(C)C/C=C/C(=O)N(C)CCn1nc(-c2ccc(Oc3ccccc3)cc2)c(C(N)=O)c1N` [Example 35, (E)-5-amino-1-(2-(4-(dimethylamino)-N-methylbut-2-enamido)ethyl)-3-(4-phenoxyphenyl)-1H-pyrazole-4-carboxamide], the IC50 in assay [1] and in assay [2] was below 100 nM throughout.

Consider `C=CC(=O)N1CCCC(n2nc(-c3ccc(Oc4ccccc4)cc3)c(C(N)=O)c2NCC)C1` (centres unmarked) [Example 6, 1-(1-acryloylpiperidin-3-yl)-5-(ethylamino)-3-(4-phenoxyphenyl)-1H-pyrazole-4-carboxamide], for which the half-inhibitory concentration (IC50) in assay [1] and in assay [2] was below 100 nM in each case.

In the case of `C=CC(=O)N1CCC[C@@H](n2nc(-c3ccc(Oc4ccccc4)cc3)c(C(N)=O)c2N)C1` [Example 18, (R)-1-(1-acryloylpiperidin-3-yl)-5-amino-3-(4-phenoxyphenyl)-1H-pyrazole-4-carboxamide], the IC50 in assay [2] is below 100 nM.

`CN(C)C/C=C/C(=O)N1CCCC(n2nc(-c3ccc(Oc4ccccc4)cc3)c(C(N)=O)c2N)C1` (centres unmarked) [Example 29, (E)-5-amino-1-(1-(4-(dimethylamino)but-2-enoyl)piperidin-3-yl)-3-(4-phenoxyphenyl)-1H-pyrazole-4-carboxamide]: the IC50 in assay [1] and in assay [2] was below 100 nM in each case.

For the compound `C=CC(=O)N1CC[C@@H](n2nc(-c3ccc(Oc4cccc([N+](=O)[O-])c4)c(C)c3)c(C(N)=O)c2N)C1` [Example 49, (R)-1-(1-acryloylpyrrolidin-3-yl)-5-amino-3-(3-methyl-4-(3-nitrophenoxy)phenyl)-1H-pyrazole-4-carboxamide], the IC50 in assay [1] and in assay [2] was below 100 nM throughout.

For `C=CC(=O)N1CC[C@@H](n2nc(-c3ccc(Oc4cc([N+](=O)[O-])ccc4C)cc3)c(C(N)=O)c2N)C1` [Example 47, (R)-1-(1-acryloylpyrrolidin-3-yl)-5-amino-3-(4-(2-methyl-5-nitrophenoxy)phenyl)-1H-pyrazole-4-carboxamide], the IC50 in assay [1] and in assay [2] was below 100 nM in each case.

Consider `NC(=O)c1c(-c2ccc(Oc3ccccc3)cc2)nn(C2CCCCC2)c1N` [Example 20, 5-amino-1-cyclohexyl-3-(4-phenoxyphenyl)-1H-pyrazole-4-carboxamide], for which the IC50 in assay [1] and in assay [2] was below 100 nM each time.

Regarding `C=CC(=O)N1CCCC(n2nc(-c3ccc(Oc4ccccc4)cc3)c(C(N)=O)c2NCCN2CCOCC2)C1` (centres unmarked) [Example 13, 1-(1-acryloylpiperidin-3-yl)-5-(2-morpholinoethylamino)-3-(4-phenoxy-phenyl)-1H-pyrazole-4-carboxamide], the IC50 in assay [1] and in assay [2] was below 100 nM each time.

For the compound `C=CC(=O)N1CC[C@@H](n2nc(-c3ccc(Oc4ccc(Cl)cc4)cc3)c(C(N)=O)c2N)C1` [Example 43, (R)-1-(1-acryloylpyrrolidin-3-yl)-5-amino-3-(4-(4-chlorophenoxyl)phenyl)-1H-pyrazole-4-carboxamide], the IC50 in assay [1] and in assay [2] was below 100 nM in each case.

For the compound `C=CC(=O)N1CC[C@@H](n2nc(-c3ccc(Oc4cc(F)cc(F)c4)cc3)c(C(N)=O)c2N)C1` [Example 41, (R)-1-(1-acryloylpyrrolidin-3-yl)-5-amino-3-(4-(3,5-difluorophenoxyl)phenyl)-1H-pyrazole-4-carboxamide], the IC50 in assay [1] and in assay [2] was below 100 nM each time.

Turning to `CN(CCn1nc(-c2ccc(Oc3ccccc3)cc2)c(C(N)=O)c1N)C(=O)CCl` [Example 34, 5-amino-1-(2-(2-chloro-N-methylacetamido)ethyl)-3-(4-phenoxyphenyl)-1H-pyrazole-4-carboxamide], the IC50 in assay [1] and in assay [2] was below 100 nM throughout.

As to `C=CC(=O)N1CC[C@H](n2nc(-c3ccc(Oc4ccccc4)cc3)c(C(N)=O)c2N)C1` [25 (S-isomer)], the IC50 in assay [1] and in assay [2] was below 100 nM throughout.

For `C=CC(=O)N1CCC[C@@H](n2nc(-c3ccc(Oc4ccccc4)cc3)c(C(N)=O)c2NC)C1` [Example 2, (R)-1-(1-acryloylpiperidin-3-yl)-5-(methylamino)-3-(4-phenoxyphenyl)-1H-pyrazole-4-carboxamide], the IC50 in assay [1] and in assay [2] was below 100 nM each time.

For `C=CC(=O)N1CC[C@@H](n2nc(-c3ccc(Oc4cccc(OC)c4)cc3)c(C(N)=O)c2N)C1` [Example 42, (R)-1-(1-acryloylpyrrolidin-3-yl)-5-amino-3-(4-(3-methoxyphenoxyl)phenyl)-1H-pyrazole-4-carboxamide], the IC50 in assay [1] and in assay [2] was below 100 nM throughout.

`C=CC(=O)N1CC[C@@H](n2nc(-c3ccc(Oc4ccccc4Cl)cc3)c(C(N)=O)c2N)C1` [Example 45, (R)-1-(1-acryloylpyrrolidin-3-yl)-5-amino-3-(4-(2-chlorophenoxyl)phenyl)-1H-pyrazole-4-carboxamide]: the IC50 in assay [1] and in assay [2] was below 100 nM in each case.

On to `C=CC(=O)N1CC[C@@H](n2nc(-c3ccc(Oc4ccc(C)c([N+](=O)[O-])c4)cc3)c(C(N)=O)c2N)C1` [Example 48, (R)-1-(1-acryloylpyrrolidin-3-yl)-5-amino-3-(4-(4-methyl-3-nitrophenoxy)phenyl)-1H-pyrazole-4-carboxamide], for which the 50% inhibitory concentration (IC50) in assay [1] and in assay [2] was below 100 nM in each case.

Consider `C=CC(=O)NCCn1nc(-c2ccc(Oc3ccccc3)cc2)c(C(N)=O)c1N` [Example 31, 1-(2-acrylamidoethyl)-5-amino-3-(4-phenoxyphenyl)-1H-pyrazole-4-carboxamide], for which the IC50 in assay [1] and in assay [2] was below 100 nM each time.

As to `C=CC(=O)N1CCC(n2nc(-c3ccc(Oc4ccccc4)cc3)c(C(N)=O)c2N)CC1` [Example 24, 1-(1-acryloylpiperidin-4-yl)-5-amino-3-(4-phenoxyphenyl)-1H-pyrazole-4-carboxamide], the IC50 in assay [1] and in assay [2] was below 100 nM in each case.

On to `C=CC(=O)N1CCC[C@H](n2nc(-c3ccc(Oc4ccccc4)cc3)c(C(N)=O)c2N)C1` [Example 23, (S)-1-(1-acryloylpiperidin-3-yl)-5-amino-3-(4-phenoxyphenyl)-1H-pyrazole-4-carboxamide], for which the IC50 in assay [2] is below 100 nM.

Regarding `NC(=O)c1c(-c2ccc(Oc3ccccc3)cc2)nn(C2CCCN(C(=O)CCl)C2)c1N` (centres unmarked) [Example 28, 5-amino-1-(1-(2-chloroacetyl)piperidin-3-yl)-3-(4-phenoxyphenyl)-1H-pyrazole-4-carboxamide], the IC50 in assay [1] and in assay [2] was below 100 nM in each case.

For `C#CC(=O)N(C)CCn1nc(-c2ccc(Oc3ccccc3)cc2)c(C(N)=O)c1N` [Example 32, 5-amino-1-(2-(N-methylpropiolamido)ethyl)-3-(4-phenoxyphenyl)-1H-pyrazole-4-carboxamide], the IC50 in assay [1] and in assay [2] was below 100 nM in each case.

With `C=CS(=O)(=O)N(C)CCn1nc(-c2ccc(Oc3ccccc3)cc2)c(C(N)=O)c1N` [Example 33, 5-amino-1-(2-(N-methylvinylsulfonamido)ethyl)-3-(4-phenoxyphenyl)-1H-pyrazole-4-carboxamide], the IC50 in assay [1] and in assay [2] was below 100 nM throughout.

Take `C=CC(=O)N1CCCC(n2nc(-c3ccc(Oc4ccccc4)cc3)c(C(N)=O)c2N)C1` (centres unmarked) [Example 22, 1-(1-acryloylpiperidin-3-yl)-5-amino-3-(4-phenoxyphenyl)-1H-pyrazole-4-carboxamide]: in assay [2], the IC50 is below 100 nM.

On to `C=CS(=O)(=O)N1CCCC(n2nc(-c3ccc(Oc4ccccc4)cc3)c(C(N)=O)c2N)C1` (centres unmarked) [Example 27, 5-amino-3-(4-phenoxyphenyl)-1-(1-(vinylsulfonyl)piperidin-3-yl)-1H-pyrazole-4-carboxamide], for which the IC50 in assay [1] and in assay [2] was below 100 nM each time.

Take `C=CC(=O)N1CC[C@@H](n2nc(-c3ccc(Oc4ccc(OC)cc4)cc3)c(C(N)=O)c2N)C1` [Example 46, (R)-1-(1-acryloylpyrrolidin-3-yl)-5-amino-3-(4-(4-methoxyphenoxyl)phenyl)-1H-pyrazole-4-carboxamide]: the half-maximal inhibitory concentration (IC50) in assay [1] and in assay [2] was below 100 nM in each case.

Turning to `C=CC(=O)N1CCC(n2nc(-c3ccc(Oc4ccccc4)cc3)c(C(N)=O)c2N)C1` (centres unmarked) [Example 25, 1-(1-acryloylpyrrolidin-3-yl)-5-amino-3-(4-phenoxyphenyl)-1H-pyrazole-4-carboxamide], the IC50 in assay [1] and in assay [2] was below 100 nM in each case.

Consider `C=CC(=O)N1CCCC(n2nc(-c3ccc(Oc4ccccc4)cc3)c(C(N)=O)c2NCCN2CCN(C)CC2)C1` (centres unmarked) [Example 15, 1-(1-acryloylpiperidin-3-yl)-5-(2-(4-methylpiperazin-1-yl)ethylamino)-3-(4-phenoxy-phenyl)-1H-pyrazole-4-carboxamide], for which the IC50 in assay [1] and in assay [2] was below 100 nM each time.
